# Measured values as given in PubChem BioAssay (NCI).
#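 Assay format: 96-well plates, 48-hour exposure. GI50 = concentration required for 50% inhibition of growth. The concentration for full growth arrest is given as TGI.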
# What was measured:
# Assay in all cases: NCI anticancer screen, dose series, 48 h
# SW-620 colon = system: SW-620 colon
# NCI-H460 lung = system: NCI-H460 lung
# MDA-MB-435 = system: MDA-MB-435
# HCT-15 colon = system: HCT-15 colon
# CCRF-CEM leukemia = system: CCRF-CEM leukemia
# HOP-92 NSCLC = system: HOP-92 NSCLC
# 786-0 renal = system: 786-0 renal
# SK-MEL-5 melanoma = system: SK-MEL-5 melanoma
# HL-60(TB) leukemia = system: HL-60(TB) leukemia
# NCI-H522 lung = system: NCI-H522 lung
# TK-10 renal = system: TK-10 renal
# MDA-MB-231 breast = system: MDA-MB-231 breast
# LOX IMVI melanoma = system: LOX IMVI melanoma
# A498 renal = system: A498 renal
# SNB-19 CNS = system: SNB-19 CNS
# SF-295 CNS = system: SF-295 CNS
# UACC-62 melanoma = system: UACC-62 melanoma
# SK-OV-3 ovarian = system: SK-OV-3 ovarian
# HS 578T breast = system: HS 578T breast
# SNB-75 CNS = system: SNB-75 CNS
# HOP-62 NSCLC = system: HOP-62 NSCLC
# HCT-116 colon = system: HCT-116 colon
# SF-539 CNS = system: SF-539 CNS
# M14 melanoma = system: M14 melanoma
# OVCAR-5 ovarian = system: OVCAR-5 ovarian
# PC-3 prostate = system: PC-3 prostate
# EKVX NSCLC = system: EKVX NSCLC
# HCC-2998 colon = system: HCC-2998 colon
# SF-268 CNS = system: SF-268 CNS
# UACC-257 melanoma = system: UACC-257 melanoma
# SK-MEL-28 melanoma = system: SK-MEL-28 melanoma
# MOLT-4 leukemia = system: MOLT-4 leukemia
# NCI-H226 lung = system: NCI-H226 lung
# SN12C renal = system: SN12C renal
# UO-31 renal = system: UO-31 renal
# IGROV1 ovarian = system: IGROV1 ovarian
# U251 CNS = system: U251 CNS
# DU-145 prostate = system: DU-145 prostate
# T-47D breast = system: T-47D breast
# MDA-MB-468 breast = system: MDA-MB-468 breast
# KM12 colon = system: KM12 colon
# NCI/ADR-RES ovarian = system: NCI/ADR-RES ovarian
# K-562 leukemia = system: K-562 leukemia
# RPMI-8226 leukemia = system: RPMI-8226 leukemia
# COLO 205 colon = system: COLO 205 colon
# OVCAR-3 ovarian = system: OVCAR-3 ovarian
# OVCAR-8 ovarian = system: OVCAR-8 ovarian
# BT-549 breast = system: BT-549 breast
# A549 NSCLC = system: A549 NSCLC
# NCI-H23 lung = system: NCI-H23 lung
# MCF7 breast = system: MCF7 breast
# CAKI-1 renal = system: CAKI-1 renal
# OVCAR-4 ovarian = system: OVCAR-4 ovarian
# ACHN renal = system: ACHN renal
# RXF 393 renal = system: RXF 393 renal
# SK-MEL-2 melanoma = system: SK-MEL-2 melanoma
# MALME-3M melanoma = system: MALME-3M melanoma
smiles,measurement,setting,value
COc1ccc(C(=O)/C=C/c2cc(F)cc(C(F)(F)F)c2)cc1S(N)(=O)=O,GI50,SW-620 colon,1.81 µM
same,TGI,SW-620 colon,3.55 µM
same,GI50,NCI-H460 lung,3.41 µM
same,TGI,NCI-H460 lung,11.8 µM
same,GI50,MDA-MB-435,2.02 µM
same,TGI,MDA-MB-435,4.91 µM
same,GI50,HCT-15 colon,1.59 µM
same,TGI,HCT-15 colon,3.39 µM
same,GI50,CCRF-CEM leukemia,1.5 µM
same,TGI,CCRF-CEM leukemia,6.79 µM
same,GI50,HOP-92 NSCLC,6.32 µM
same,TGI,HOP-92 NSCLC,21.4 µM
same,GI50,786-0 renal,1.84 µM
same,TGI,786-0 renal,3.79 µM
same,GI50,SK-MEL-5 melanoma,5.52 µM
same,TGI,SK-MEL-5 melanoma,17.9 µM
same,GI50,HL-60(TB) leukemia,2.33 µM
same,TGI,HL-60(TB) leukemia,8.4 µM
same,GI50,NCI-H522 lung,1.9 µM
same,TGI,NCI-H522 lung,3.98 µM
same,GI50,TK-10 renal,4.69 µM
same,TGI,TK-10 renal,18.5 µM
same,GI50,MDA-MB-231 breast,2.06 µM
same,TGI,MDA-MB-231 breast,4.81 µM
same,GI50,LOX IMVI melanoma,1.42 µM
same,TGI,LOX IMVI melanoma,2.72 µM
same,GI50,A498 renal,13.9 µM
same,TGI,A498 renal,26.8 µM
same,GI50,SNB-19 CNS,3.07 µM
same,TGI,SNB-19 CNS,11.3 µM
same,GI50,SF-295 CNS,3.62 µM
same,TGI,SF-295 CNS,13.4 µM
same,GI50,UACC-62 melanoma,3.28 µM
same,TGI,UACC-62 melanoma,13.6 µM
same,GI50,SK-OV-3 ovarian,15.7 µM
same,TGI,SK-OV-3 ovarian,31.8 µM
same,GI50,HS 578T breast,15.9 µM
same,TGI,HS 578T breast,54.9 µM
same,GI50,SNB-75 CNS,2.45 µM
same,TGI,SNB-75 CNS,13.2 µM
same,GI50,HOP-62 NSCLC,7.34 µM
same,TGI,HOP-62 NSCLC,22.2 µM
same,GI50,HCT-116 colon,1.58 µM
same,TGI,HCT-116 colon,3.39 µM
same,GI50,SF-539 CNS,1.73 µM
same,TGI,SF-539 CNS,3.17 µM
same,GI50,M14 melanoma,3.14 µM
same,TGI,M14 melanoma,11.2 µM
same,GI50,OVCAR-5 ovarian,7.88 µM
same,TGI,OVCAR-5 ovarian,20.6 µM
same,GI50,PC-3 prostate,2.48 µM
same,TGI,PC-3 prostate,7.3 µM
same,GI50,EKVX NSCLC,5.07 µM
same,TGI,EKVX NSCLC,18.3 µM
same,GI50,HCC-2998 colon,1.98 µM
same,TGI,HCC-2998 colon,3.71 µM
same,GI50,SF-268 CNS,12 µM
same,TGI,SF-268 CNS,43.3 µM
same,GI50,UACC-257 melanoma,11.3 µM
same,TGI,UACC-257 melanoma,25.8 µM
same,GI50,SK-MEL-28 melanoma,2.63 µM
same,TGI,SK-MEL-28 melanoma,7.2 µM
same,GI50,MOLT-4 leukemia,2.44 µM
same,TGI,MOLT-4 leukemia,9.1 µM
same,GI50,NCI-H226 lung,8.55 µM
same,TGI,NCI-H226 lung,23.6 µM
same,GI50,SN12C renal,1.88 µM
same,TGI,SN12C renal,4.59 µM
same,GI50,UO-31 renal,1.94 µM
same,TGI,UO-31 renal,5.1 µM
same,GI50,IGROV1 ovarian,3.15 µM
same,TGI,IGROV1 ovarian,11.6 µM
same,GI50,U251 CNS,1.75 µM
same,TGI,U251 CNS,3.79 µM
same,GI50,DU-145 prostate,12 µM
same,TGI,DU-145 prostate,25 µM
same,GI50,T-47D breast,11 µM
same,TGI,T-47D breast,25.8 µM
same,GI50,MDA-MB-468 breast,1.66 µM
same,TGI,MDA-MB-468 breast,3.34 µM
same,GI50,KM12 colon,1.96 µM
same,TGI,KM12 colon,4.08 µM
same,GI50,NCI/ADR-RES ovarian,2.16 µM
same,TGI,NCI/ADR-RES ovarian,5.44 µM
same,GI50,K-562 leukemia,2.05 µM
same,TGI,K-562 leukemia,> 100 µM
same,GI50,RPMI-8226 leukemia,2.13 µM
same,TGI,RPMI-8226 leukemia,7.47 µM
same,GI50,COLO 205 colon,3.79 µM
same,TGI,COLO 205 colon,13.2 µM
same,GI50,OVCAR-3 ovarian,3.62 µM
same,TGI,OVCAR-3 ovarian,11.9 µM
same,GI50,OVCAR-8 ovarian,3.21 µM
same,TGI,OVCAR-8 ovarian,11.4 µM
same,GI50,BT-549 breast,6.4 µM
same,TGI,BT-549 breast,19.5 µM
same,GI50,A549 NSCLC,4.3 µM
same,TGI,A549 NSCLC,23.1 µM
same,GI50,NCI-H23 lung,2.23 µM
same,TGI,NCI-H23 lung,5.48 µM
same,GI50,MCF7 breast,1.69 µM
same,TGI,MCF7 breast,4.42 µM
same,GI50,CAKI-1 renal,4.65 µM
same,TGI,CAKI-1 renal,17.7 µM
same,GI50,OVCAR-4 ovarian,5.86 µM
same,TGI,OVCAR-4 ovarian,18.7 µM
same,GI50,ACHN renal,1.72 µM
same,TGI,ACHN renal,3.28 µM
same,GI50,RXF 393 renal,3.97 µM
same,TGI,RXF 393 renal,16.1 µM
same,GI50,SK-MEL-2 melanoma,15.5 µM
same,TGI,SK-MEL-2 melanoma,31.2 µM
same,GI50,MALME-3M melanoma,12.1 µM
same,TGI,MALME-3M melanoma,24.7 µM
Cc1ccc(/C=C/c2n(Cc3ccc4ccccc4c3)c3ccccc3[n+]2Cc2ccc3ccccc3c2)cc1,GI50,SK-MEL-5 melanoma,0.905 µM
same,TGI,SK-MEL-5 melanoma,2.11 µM
same,GI50,SF-295 CNS,0.399 µM
same,TGI,SF-295 CNS,1.66 µM
same,GI50,UACC-62 melanoma,1.27 µM
same,TGI,UACC-62 melanoma,2.56 µM
same,GI50,HS 578T breast,0.382 µM
same,TGI,HS 578T breast,1.74 µM
same,GI50,SNB-75 CNS,0.729 µM
same,TGI,SNB-75 CNS,2.15 µM
same,GI50,SF-539 CNS,0.475 µM
same,TGI,SF-539 CNS,1.71 µM
same,GI50,OVCAR-5 ovarian,1.1 µM
same,TGI,OVCAR-5 ovarian,2.3 µM
same,GI50,SF-268 CNS,1.5 µM
same,TGI,SF-268 CNS,3.88 µM
same,GI50,SK-MEL-28 melanoma,0.726 µM
same,TGI,SK-MEL-28 melanoma,2.01 µM
same,GI50,SN12C renal,1.45 µM
same,TGI,SN12C renal,2.79 µM
same,GI50,UO-31 renal,1.44 µM
same,TGI,UO-31 renal,2.77 µM
same,GI50,NCI/ADR-RES ovarian,1.9 µM
same,TGI,NCI/ADR-RES ovarian,4.56 µM
same,GI50,RPMI-8226 leukemia,0.331 µM
same,TGI,RPMI-8226 leukemia,2.3 µM
same,GI50,ACHN renal,0.782 µM
same,TGI,ACHN renal,2.03 µM
same,GI50,RXF 393 renal,0.325 µM
same,TGI,RXF 393 renal,1.39 µM
same,GI50,MALME-3M melanoma,0.465 µM
same,TGI,MALME-3M melanoma,1.74 µM
